≈ marks a conversion by molar mass, not a printed value. Calls of active or inactive are those of the source. The rule behind the calls is not given here.
Columns and labels:
Assay type in all cases: functional
Staphylococcus aureus [1] = experiment: Antibacterial activity against linezolid-resistant Staphylococcus aureus NRS 119
Streptococcus pneumoniae = experiment: Antibacterial activity against penicillin-resistant Streptococcus pneumoniae ATCC 700904
[2] = test system: Staphylococcus epidermidis; experiment: Antibacterial activity against Staphylococcus epidermidis ATCC 155
Staphylococcus aureus [3] = experiment: Antibacterial activity against Staphylococcus aureus ATCC 25923
Bacillus pumilus = experiment: Antibacterial activity against Bacillus pumilus ATCC 14348
Staphylococcus aureus [4] = experiment: Antibacterial activity against methicillin-resistant Staphylococcus aureus ATCC 700699
Streptococcus pyogenes = experiment: Antibacterial activity against Streptococcus pyogenes ATCC 14289
Staphylococcus aureus [5] = experiment: Antibacterial activity against Staphylococcus aureus ATCC 9144
Enterococcus faecalis [6] = experiment: Antibacterial activity against vancomycin-resistant Enterococcus faecalis ATCC 700802
Enterococcus faecalis [7] = experiment: Antibacterial activity against Enterococcus faecalis ATCC 14506
Enterococcus faecalis [8] = experiment: Antibacterial activity against Enterococcus faecalis ATCC 35550
Staphylococcus aureus [9] = experiment: Antibacterial activity against Staphylococcus aureus ATCC 14154
Staphylococcus aureus [10] = experiment: Antibacterial activity against Staphylococcus aureus ATCC 29213

With `CC(=O)NC[C@H]1CN(c2ccc(N3CCOCC3)c(F)c2)C(=O)O1` [LINEZOLID] the MIC (Staphylococcus aureus [1]) was over 16 µg/mL, the MIC (Streptococcus pneumoniae) was 0.25 µg/mL (≈ 0.741 µM) and the MIC [2] was 1 µg/mL (≈ 2.96 µM). For the same compound, the MIC (Staphylococcus aureus [3]) was 1 µg/mL (≈ 2.96 µM), the MIC (Bacillus pumilus) was 2 µg/mL (≈ 5.93 µM) and the MIC (Staphylococcus aureus [4]) was 1 µg/mL (≈ 2.96 µM). The MIC (Streptococcus pyogenes) was 0.25 µg/mL (≈ 0.741 µM).
With `CC(=O)/C=C/C(=O)N1CCN(c2ccc(N3C[C@H](CNC(C)=O)OC3=O)cc2F)CC1` the MIC (Staphylococcus aureus [5]) was 1 µg/mL (≈ 2.31 µM), the MIC (Enterococcus faecalis [6]) was 2 µg/mL (≈ 4.62 µM) and the MIC (Staphylococcus aureus [1]) was over 16 µg/mL. For the same compound, the MIC (Enterococcus faecalis [7]) was 4 µg/mL (≈ 9.25 µM), the MIC (Streptococcus pneumoniae) was 0.5 µg/mL (≈ 1.16 µM) and the MIC (Enterococcus faecalis [8]) was 1 µg/mL (≈ 2.31 µM). For the same compound, the MIC [2] was 0.25 µg/mL (≈ 0.578 µM), the MIC (Staphylococcus aureus [3]) was 0.25 µg/mL (≈ 0.578 µM) and the MIC (Bacillus pumilus) was 0.5 µg/mL (≈ 1.16 µM). The MIC (Staphylococcus aureus [4]) was 1 µg/mL (≈ 2.31 µM) and the MIC (Staphylococcus aureus [9]) was 1 µg/mL (≈ 2.31 µM).
For `COc1ccc(C(=O)/C=C/C(=O)N2CCN(c3ccc(N4C[C@H](CNC(C)=O)OC4=O)cc3F)CC2)cc1`, the MIC (Staphylococcus aureus [5]) was 0.5 µg/mL (≈ 0.953 µM), the MIC (Enterococcus faecalis [6]) was 2 µg/mL (≈ 3.81 µM) and the MIC (Staphylococcus aureus [10]) was 0.25 µg/mL (≈ 0.477 µM). For the same compound, the MIC (Staphylococcus aureus [1]) was over 16 µg/mL, the MIC (Enterococcus faecalis [7]) was 1 µg/mL (≈ 1.91 µM) and the MIC (Streptococcus pneumoniae) was 2 µg/mL (≈ 3.81 µM). The MIC (Enterococcus faecalis [8]) was 0.5 µg/mL (≈ 0.953 µM), the MIC [2] was 0.25 µg/mL (≈ 0.477 µM) and the MIC (Staphylococcus aureus [3]) was 0.5 µg/mL (≈ 0.953 µM). It also gave an MIC (Bacillus pumilus) of 0.5 µg/mL (≈ 0.953 µM), an MIC (Staphylococcus aureus [4]) of 1 µg/mL (≈ 1.91 µM) and an MIC (Streptococcus pyogenes) of at most 0.12 µg/mL. It also gave an MIC (Staphylococcus aureus [9]) of at most 0.12 µg/mL.
`CC(=O)NC[C@H]1CN(c2ccc(N3CCN(C(=O)/C=C/C(=O)[O-])CC3)c(F)c2)C(=O)O1.[Na+]` gave an MIC (Enterococcus faecalis [8]) of over 16 µg/mL, an MIC [2] of over 16 µg/mL and an MIC (Staphylococcus aureus [3]) of over 16 µg/mL. For the same compound, the MIC (Bacillus pumilus) was over 16 µg/mL.
`CC(=O)NC[C@H]1CN(c2ccc(N3CCN(C(=O)CO)CC3)c(F)c2)C(=O)O1` [EPEREZOLID] showed an MIC (Staphylococcus aureus [5]) of 2 µg/mL (≈ 5.07 µM), an MIC (Enterococcus faecalis [6]) of 1 µg/mL (≈ 2.54 µM) and an MIC (Staphylococcus aureus [10]) of 2 µg/mL (≈ 5.07 µM). The MIC (Staphylococcus aureus [1]) was over 16 µg/mL, the MIC (Enterococcus faecalis [7]) was 1 µg/mL (≈ 2.54 µM) and the MIC (Streptococcus pneumoniae) was 0.5 µg/mL (≈ 1.27 µM). It also gave an MIC (Enterococcus faecalis [8]) of 2 µg/mL (≈ 5.07 µM), an MIC (Staphylococcus aureus [3]) of 2 µg/mL (≈ 5.07 µM) and an MIC (Bacillus pumilus) of 1 µg/mL (≈ 2.54 µM). It also gave an MIC (Staphylococcus aureus [4]) of 1 µg/mL (≈ 2.54 µM), an MIC (Streptococcus pyogenes) of 0.5 µg/mL (≈ 1.27 µM) and an MIC (Staphylococcus aureus [9]) of 2 µg/mL (≈ 5.07 µM).
In the case of `CC(=O)NC[C@H]1CN(c2ccc(N3CCN(C(=O)/C=C/C(=O)c4ccccc4)CC3)c(F)c2)C(=O)O1`, the MIC (Staphylococcus aureus [5]) is reported as at most 0.12 µg/mL, the MIC (Enterococcus faecalis [6]) is reported as 2 µg/mL (≈ 4.04 µM) and the MIC (Staphylococcus aureus [10]) is reported as 0.25 µg/mL (≈ 0.506 µM). It also gave an MIC (Staphylococcus aureus [1]) of 4 µg/mL (≈ 8.09 µM), an MIC (Enterococcus faecalis [7]) of 2 µg/mL (≈ 4.04 µM) and an MIC (Streptococcus pneumoniae) of at most 0.12 µg/mL. For the same compound, the MIC (Enterococcus faecalis [8]) was 0.5 µg/mL (≈ 1.01 µM), the MIC [2] was 0.12 µg/mL (≈ 0.243 µM) and the MIC (Staphylococcus aureus [3]) was at most 0.12 µg/mL. For the same compound, the MIC (Bacillus pumilus) was 1 µg/mL (≈ 2.02 µM), the MIC (Staphylococcus aureus [4]) was at most 0.12 µg/mL and the MIC (Streptococcus pyogenes) was 0.25 µg/mL (≈ 0.506 µM). For the same compound, the MIC (Staphylococcus aureus [9]) was at most 0.12 µg/mL.
With `CC(=O)NC[C@H]1CN(c2ccc(N3CCN(C(=O)/C=C/C(=O)c4ccc(NC(C)=O)cc4)CC3)c(F)c2)C(=O)O1` the MIC (Staphylococcus aureus [5]) was at most 0.12 µg/mL, the MIC (Staphylococcus aureus [10]) was at most 0.12 µg/mL and the MIC (Staphylococcus aureus [1]) was over 16 µg/mL. For the same compound, the MIC (Enterococcus faecalis [7]) was 1 µg/mL (≈ 1.81 µM), the MIC (Streptococcus pneumoniae) was “inactive” and the MIC (Enterococcus faecalis [8]) was 0.25 µg/mL (≈ 0.453 µM). The MIC [2] was at most 0.12 µg/mL, the MIC (Staphylococcus aureus [3]) was 0.5 µg/mL (≈ 0.906 µM) and the MIC (Bacillus pumilus) was 0.5 µg/mL (≈ 0.906 µM). The MIC (Staphylococcus aureus [4]) was 1 µg/mL (≈ 1.81 µM), the MIC (Streptococcus pyogenes) was at most 0.12 µg/mL and the MIC (Staphylococcus aureus [9]) was at most 0.12 µg/mL.
Work on `CC(=O)NC[C@H]1CN(c2ccc(N3CCN(C(=O)/C=C/C(=O)c4cccc5ccccc45)CC3)c(F)c2)C(=O)O1` yielded an MIC (Staphylococcus aureus [5]) of 4 µg/mL (≈ 7.35 µM), an MIC (Enterococcus faecalis [6]) of 8 µg/mL (≈ 14.7 µM) and an MIC (Staphylococcus aureus [10]) of 2 µg/mL (≈ 3.67 µM). It also gave an MIC (Staphylococcus aureus [1]) of over 16 µg/mL, an MIC (Enterococcus faecalis [7]) of 1 µg/mL (≈ 1.84 µM) and an MIC (Streptococcus pneumoniae) of 2 µg/mL (≈ 3.67 µM). It also gave an MIC (Enterococcus faecalis [8]) of 0.5 µg/mL (≈ 0.918 µM), an MIC [2] of 2 µg/mL (≈ 3.67 µM) and an MIC (Staphylococcus aureus [3]) of 2 µg/mL (≈ 3.67 µM). For the same compound, the MIC (Bacillus pumilus) was 1 µg/mL (≈ 1.84 µM), the MIC (Staphylococcus aureus [4]) was 8 µg/mL (≈ 14.7 µM) and the MIC (Streptococcus pyogenes) was 0.5 µg/mL (≈ 0.918 µM). For the same compound, the MIC (Staphylococcus aureus [9]) was 4 µg/mL (≈ 7.35 µM).
`COc1ccc(C(=O)/C=C/C(=O)N2CCN(c3ccc(N4C[C@H](C/N=C(/C)S)OC4=O)cc3F)CC2)cc1` was tested, and the MIC (Staphylococcus aureus [5]) was at most 0.12 µg/mL, the MIC (Staphylococcus aureus [10]) was at most 0.12 µg/mL and the MIC (Staphylococcus aureus [1]) was over 16 µg/mL. For the same compound, the MIC (Enterococcus faecalis [7]) was 1 µg/mL (≈ 1.85 µM), the MIC (Streptococcus pneumoniae) was 1 µg/mL (≈ 1.85 µM) and the MIC (Enterococcus faecalis [8]) was 0.25 µg/mL (≈ 0.462 µM). For the same compound, the MIC [2] was 0.12 µg/mL (≈ 0.222 µM), the MIC (Staphylococcus aureus [3]) was 0.25 µg/mL (≈ 0.462 µM) and the MIC (Bacillus pumilus) was 0.5 µg/mL (≈ 0.925 µM). The MIC (Staphylococcus aureus [4]) was 0.5 µg/mL (≈ 0.925 µM), the MIC (Streptococcus pyogenes) was 0.25 µg/mL (≈ 0.462 µM) and the MIC (Staphylococcus aureus [9]) was 0.25 µg/mL (≈ 0.462 µM).
`CC(=O)NC[C@H]1CN(c2ccc(N3CCN(C(=O)/C=C/C(=O)c4ccc(Br)cc4)CC3)c(F)c2)C(=O)O1` was tested, and the MIC (Staphylococcus aureus [5]) was 4 µg/mL (≈ 6.98 µM), the MIC (Enterococcus faecalis [6]) was over 16 µg/mL and the MIC (Staphylococcus aureus [10]) was 4 µg/mL (≈ 6.98 µM). For the same compound, the MIC (Staphylococcus aureus [1]) was over 16 µg/mL, the MIC (Enterococcus faecalis [7]) was 2 µg/mL (≈ 3.49 µM) and the MIC (Streptococcus pneumoniae) was 2 µg/mL (≈ 3.49 µM). It also gave an MIC (Enterococcus faecalis [8]) of 2 µg/mL (≈ 3.49 µM), an MIC [2] of 0.25 µg/mL (≈ 0.436 µM) and an MIC (Staphylococcus aureus [3]) of at most 0.12 µg/mL. It also gave an MIC (Bacillus pumilus) of 0.12 µg/mL (≈ 0.209 µM), an MIC (Staphylococcus aureus [4]) of 4 µg/mL (≈ 6.98 µM) and an MIC (Staphylococcus aureus [9]) of 2 µg/mL (≈ 3.49 µM).
For `CC(=O)NC[C@H]1CN(c2ccc(N3CCN(C(=O)/C=C/c4ccccc4)CC3)c(F)c2)C(=O)O1`, the MIC (Staphylococcus aureus [5]) was 2 µg/mL (≈ 4.29 µM), the MIC (Enterococcus faecalis [6]) was 0.5 µg/mL (≈ 1.07 µM) and the MIC (Staphylococcus aureus [10]) was 2 µg/mL (≈ 4.29 µM). The MIC (Staphylococcus aureus [1]) was over 16 µg/mL, the MIC (Enterococcus faecalis [7]) was 0.5 µg/mL (≈ 1.07 µM) and the MIC (Streptococcus pneumoniae) was 0.5 µg/mL (≈ 1.07 µM). The MIC (Enterococcus faecalis [8]) was 1 µg/mL (≈ 2.14 µM), the MIC [2] was 1 µg/mL (≈ 2.14 µM) and the MIC (Staphylococcus aureus [3]) was 1 µg/mL (≈ 2.14 µM). For the same compound, the MIC (Bacillus pumilus) was 0.5 µg/mL (≈ 1.07 µM), the MIC (Staphylococcus aureus [4]) was 1 µg/mL (≈ 2.14 µM) and the MIC (Streptococcus pyogenes) was 1 µg/mL (≈ 2.14 µM). For the same compound, the MIC (Staphylococcus aureus [9]) was 2 µg/mL (≈ 4.29 µM).
